Values after ≈ are worked out from the molar mass of the structure shown. One block for each compound: values may come before it. Active and inactive are the calls of the source. The calls are words filed in the database; no cut-off is given here.
Columns and labels:
Liver microsomes = assay: (§1) Intrinsic clearance in rat liver microsomes; type: ADME, Microsome; details: microsomes
[1] = Intrinsic clearance in human liver microsomes; type: ADME, Microsome; details: read-out: CLH
[2] = Volume of distribution at steady state in iv dosed rat; type: ADME, organism-based; details: in vivo, read-out: Vdss
[3] = Volume of distribution at steady state in iv dosed dog; type: ADME, organism-based, Canis lupus familiaris; details: in vivo, read-out: Vdss
[4] = Oral bioavailability in rat; type: ADME, organism-based; details: in vivo
[5] = Clearance in iv dosed rat; type: ADME, organism-based; details: in vivo
[6] = Clearance in iv dosed dog; type: ADME, organism-based, Canis lupus familiaris; details: in vivo
[7] = Oral bioavailability in dog; type: ADME, organism-based, Canis lupus familiaris; details: in vivo
[8] = target: High affinity cAMP-specific and IBMX-insensitive 3',5'-cyclic phosphodiesterase 8B (Homo sapiens, UniProt O95263); assay: Inhibition of PDE8B expressed in Sf9 insect cells
[9] = as §1; type: ADME, Microsome; details: liver microsomes, read-out: CLH
[10] = Solubility of the compound; type: physicochemical
[11] = target: 3',5'-cyclic-AMP phosphodiesterase 4C (Homo sapiens) (UniProt Q08493); assay: Inhibition of PDE4C at 1 uM
[12] = target: 3',5'-cyclic-AMP phosphodiesterase 4D (Homo sapiens) (UniProt Q08499); assay: Inhibition of PDE4D at 1 uM
[13] = Genotoxicity in micronucleus
Salmonella typhimurium = assay: Genotoxicity in Salmonella typhimurium; type: toxicity, organism-based; details: salmonella enterica subsp. enterica serovar typhimurium
Canis familiaris [14] = species: Canis familiaris; assay: Cardiotoxicity in dog assessed as increase in heart rate at > 10 times IC50; type: toxicity, organism-based, Canis lupus familiaris; details: in vivo
Homo sapiens [15] = species: Homo sapiens; assay: Inhibition of PDE
[16] = Efflux ratio of permeability of the compound across MDCK cells; type: ADME, cell-based, Canis lupus familiaris; details: dog
Homo sapiens [17] = species: Homo sapiens; assay: Selectivity ratio for PDE to PDE8B
[18] = Fraction unbound in rat plasma; type: ADME, cell-free
[19] = Solubility of the compound at pH 4; type: physicochemical; details: buffer
[20] = target: Kappa-type opioid receptor (Homo sapiens) (UniProt P41145); assay: Inhibition of kappa opioid receptor
Pancreatic islet = assay: Induction of insulin secretion in human pancreatic islet cells at 0.001 to 100 uM in presence of glucose; type: functional
[21] = target: Voltage-gated inwardly rectifying potassium channel KCNH2 (Homo sapiens, UniProt Q12809); assay: Inhibition of human ERG
[22] = Solubility of the compound at pH 7.4; type: physicochemical; details: buffer
[23] = Fraction unbound in human plasma; type: ADME, cell-free
[24] = Fraction unbound in dog plasma; type: ADME, cell-free, Canis lupus familiaris
[25] = Dissociation constant, pKa of the compound; type: physicochemical
[26] = target: High affinity cAMP-specific and IBMX-insensitive 3',5'-cyclic phosphodiesterase 8A (Homo sapiens, UniProt O60658); assay: Inhibition of PDE8A
Canis familiaris [27] = species: Canis familiaris; assay: Cardiotoxicity in dog assessed as increase in blood pressure at > 10 times IC50; type: toxicity, organism-based, Canis lupus familiaris

Sequence of High affinity cAMP-specific and IBMX-insensitive 3',5'-cyclic phosphodiesterase 8B (O95263 whole entry): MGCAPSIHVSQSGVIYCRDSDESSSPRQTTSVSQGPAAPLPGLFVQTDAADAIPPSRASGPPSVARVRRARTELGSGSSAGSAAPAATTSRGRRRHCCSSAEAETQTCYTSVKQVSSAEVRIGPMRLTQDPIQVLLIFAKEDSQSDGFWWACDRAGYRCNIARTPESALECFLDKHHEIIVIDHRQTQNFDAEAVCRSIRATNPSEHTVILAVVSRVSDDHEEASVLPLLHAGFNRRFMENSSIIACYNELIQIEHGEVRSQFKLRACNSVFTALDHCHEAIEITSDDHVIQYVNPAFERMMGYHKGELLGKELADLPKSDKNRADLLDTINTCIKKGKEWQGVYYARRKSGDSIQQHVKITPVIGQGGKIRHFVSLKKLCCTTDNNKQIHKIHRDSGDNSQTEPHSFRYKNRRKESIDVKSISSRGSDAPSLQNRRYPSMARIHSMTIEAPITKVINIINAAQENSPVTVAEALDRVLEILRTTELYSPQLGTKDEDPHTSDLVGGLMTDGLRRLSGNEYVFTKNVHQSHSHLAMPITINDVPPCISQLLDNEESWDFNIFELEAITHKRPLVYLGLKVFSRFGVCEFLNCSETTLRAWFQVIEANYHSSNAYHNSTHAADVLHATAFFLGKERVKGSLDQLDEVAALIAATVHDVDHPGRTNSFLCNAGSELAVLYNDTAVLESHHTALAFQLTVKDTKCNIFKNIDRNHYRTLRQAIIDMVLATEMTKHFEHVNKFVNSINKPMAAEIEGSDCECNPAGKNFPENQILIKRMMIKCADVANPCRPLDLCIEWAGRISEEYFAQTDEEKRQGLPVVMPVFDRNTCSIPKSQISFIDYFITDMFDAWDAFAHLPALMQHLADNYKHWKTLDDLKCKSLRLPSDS
Sequence of 3',5'-cyclic-AMP phosphodiesterase 4D (Homo sapiens) (Q08499 whole entry): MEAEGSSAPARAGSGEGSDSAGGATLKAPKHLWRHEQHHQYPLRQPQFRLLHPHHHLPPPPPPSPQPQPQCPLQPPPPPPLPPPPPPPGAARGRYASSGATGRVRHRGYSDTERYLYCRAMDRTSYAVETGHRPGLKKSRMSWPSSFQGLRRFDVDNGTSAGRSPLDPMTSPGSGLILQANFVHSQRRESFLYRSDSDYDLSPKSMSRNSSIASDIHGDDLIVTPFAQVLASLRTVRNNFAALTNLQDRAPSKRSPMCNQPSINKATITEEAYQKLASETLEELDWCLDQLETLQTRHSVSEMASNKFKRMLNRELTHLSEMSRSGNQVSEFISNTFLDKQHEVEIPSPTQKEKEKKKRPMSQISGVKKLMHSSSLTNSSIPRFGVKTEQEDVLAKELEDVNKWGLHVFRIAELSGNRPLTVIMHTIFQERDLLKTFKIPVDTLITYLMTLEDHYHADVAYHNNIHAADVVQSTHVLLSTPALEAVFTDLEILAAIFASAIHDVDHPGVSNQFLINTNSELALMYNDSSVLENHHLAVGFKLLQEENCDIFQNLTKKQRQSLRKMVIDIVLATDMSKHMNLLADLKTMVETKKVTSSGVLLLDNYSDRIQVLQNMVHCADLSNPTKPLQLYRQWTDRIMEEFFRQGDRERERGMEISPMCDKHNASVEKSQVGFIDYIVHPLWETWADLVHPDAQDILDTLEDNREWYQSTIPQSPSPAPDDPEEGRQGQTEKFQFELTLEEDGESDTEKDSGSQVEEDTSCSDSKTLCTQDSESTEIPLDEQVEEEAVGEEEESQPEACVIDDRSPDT
Sequence of 3',5'-cyclic-AMP phosphodiesterase 4C (Homo sapiens) (Q08493 whole entry): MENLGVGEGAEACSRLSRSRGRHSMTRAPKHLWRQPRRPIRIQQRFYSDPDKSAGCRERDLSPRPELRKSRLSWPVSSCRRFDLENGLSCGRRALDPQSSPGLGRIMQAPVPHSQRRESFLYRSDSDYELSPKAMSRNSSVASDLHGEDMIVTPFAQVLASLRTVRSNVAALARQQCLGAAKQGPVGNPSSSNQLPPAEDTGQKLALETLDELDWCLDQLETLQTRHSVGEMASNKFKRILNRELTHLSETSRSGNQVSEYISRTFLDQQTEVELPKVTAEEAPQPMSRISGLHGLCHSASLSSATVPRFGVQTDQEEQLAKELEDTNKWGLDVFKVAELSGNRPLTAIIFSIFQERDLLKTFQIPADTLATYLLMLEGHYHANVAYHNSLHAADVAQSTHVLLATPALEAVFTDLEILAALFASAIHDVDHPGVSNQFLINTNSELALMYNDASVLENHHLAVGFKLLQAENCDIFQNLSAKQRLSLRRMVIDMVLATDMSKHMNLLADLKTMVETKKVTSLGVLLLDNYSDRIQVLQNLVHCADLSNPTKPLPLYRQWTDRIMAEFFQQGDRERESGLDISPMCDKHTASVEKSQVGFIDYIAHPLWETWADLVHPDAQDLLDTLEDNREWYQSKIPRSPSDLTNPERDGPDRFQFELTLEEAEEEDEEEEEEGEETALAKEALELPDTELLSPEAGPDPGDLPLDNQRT
Sequence of Voltage-gated inwardly rectifying potassium channel KCNH2 (Q12809 whole entry): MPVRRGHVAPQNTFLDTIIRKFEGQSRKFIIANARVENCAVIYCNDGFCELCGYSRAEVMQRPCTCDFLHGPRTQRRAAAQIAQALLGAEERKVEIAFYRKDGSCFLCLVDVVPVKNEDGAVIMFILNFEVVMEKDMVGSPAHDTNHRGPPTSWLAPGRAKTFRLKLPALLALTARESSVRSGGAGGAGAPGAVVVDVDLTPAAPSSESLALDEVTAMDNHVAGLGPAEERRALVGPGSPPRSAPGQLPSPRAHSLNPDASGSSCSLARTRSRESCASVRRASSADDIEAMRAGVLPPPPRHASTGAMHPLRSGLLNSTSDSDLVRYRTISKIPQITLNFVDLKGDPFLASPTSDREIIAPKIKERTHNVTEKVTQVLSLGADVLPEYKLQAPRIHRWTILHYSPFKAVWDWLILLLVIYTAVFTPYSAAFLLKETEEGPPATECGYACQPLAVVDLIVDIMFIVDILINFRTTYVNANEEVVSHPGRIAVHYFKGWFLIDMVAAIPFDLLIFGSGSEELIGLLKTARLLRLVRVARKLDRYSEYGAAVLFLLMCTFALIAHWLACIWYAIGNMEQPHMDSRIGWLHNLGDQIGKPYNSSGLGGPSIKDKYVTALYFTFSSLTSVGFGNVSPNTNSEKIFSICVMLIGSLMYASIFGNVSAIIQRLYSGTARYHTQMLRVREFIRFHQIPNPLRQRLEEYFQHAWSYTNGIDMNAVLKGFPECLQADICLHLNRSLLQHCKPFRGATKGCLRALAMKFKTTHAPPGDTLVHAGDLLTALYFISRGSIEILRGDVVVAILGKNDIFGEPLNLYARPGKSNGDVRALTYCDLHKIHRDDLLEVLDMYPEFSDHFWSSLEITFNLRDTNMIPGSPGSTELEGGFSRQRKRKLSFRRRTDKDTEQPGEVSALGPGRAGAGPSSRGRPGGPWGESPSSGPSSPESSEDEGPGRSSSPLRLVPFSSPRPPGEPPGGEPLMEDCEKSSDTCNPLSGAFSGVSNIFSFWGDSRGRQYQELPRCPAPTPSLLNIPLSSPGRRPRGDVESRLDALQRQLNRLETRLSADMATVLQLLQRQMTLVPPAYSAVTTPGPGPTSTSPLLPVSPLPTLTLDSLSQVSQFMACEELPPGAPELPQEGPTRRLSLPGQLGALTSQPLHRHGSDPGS
Sequence of Kappa-type opioid receptor (Homo sapiens) (P41145 whole entry): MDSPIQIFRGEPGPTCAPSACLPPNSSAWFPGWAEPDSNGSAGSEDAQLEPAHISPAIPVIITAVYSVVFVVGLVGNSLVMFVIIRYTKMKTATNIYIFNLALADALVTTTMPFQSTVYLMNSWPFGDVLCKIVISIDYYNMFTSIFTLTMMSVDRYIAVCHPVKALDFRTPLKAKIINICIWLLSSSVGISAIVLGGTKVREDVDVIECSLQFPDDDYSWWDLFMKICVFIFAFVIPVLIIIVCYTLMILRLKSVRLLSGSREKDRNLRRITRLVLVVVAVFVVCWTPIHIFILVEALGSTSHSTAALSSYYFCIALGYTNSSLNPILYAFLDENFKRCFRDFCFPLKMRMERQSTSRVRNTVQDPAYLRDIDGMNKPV
Sequence of High affinity cAMP-specific and IBMX-insensitive 3',5'-cyclic phosphodiesterase 8A (O60658 whole entry): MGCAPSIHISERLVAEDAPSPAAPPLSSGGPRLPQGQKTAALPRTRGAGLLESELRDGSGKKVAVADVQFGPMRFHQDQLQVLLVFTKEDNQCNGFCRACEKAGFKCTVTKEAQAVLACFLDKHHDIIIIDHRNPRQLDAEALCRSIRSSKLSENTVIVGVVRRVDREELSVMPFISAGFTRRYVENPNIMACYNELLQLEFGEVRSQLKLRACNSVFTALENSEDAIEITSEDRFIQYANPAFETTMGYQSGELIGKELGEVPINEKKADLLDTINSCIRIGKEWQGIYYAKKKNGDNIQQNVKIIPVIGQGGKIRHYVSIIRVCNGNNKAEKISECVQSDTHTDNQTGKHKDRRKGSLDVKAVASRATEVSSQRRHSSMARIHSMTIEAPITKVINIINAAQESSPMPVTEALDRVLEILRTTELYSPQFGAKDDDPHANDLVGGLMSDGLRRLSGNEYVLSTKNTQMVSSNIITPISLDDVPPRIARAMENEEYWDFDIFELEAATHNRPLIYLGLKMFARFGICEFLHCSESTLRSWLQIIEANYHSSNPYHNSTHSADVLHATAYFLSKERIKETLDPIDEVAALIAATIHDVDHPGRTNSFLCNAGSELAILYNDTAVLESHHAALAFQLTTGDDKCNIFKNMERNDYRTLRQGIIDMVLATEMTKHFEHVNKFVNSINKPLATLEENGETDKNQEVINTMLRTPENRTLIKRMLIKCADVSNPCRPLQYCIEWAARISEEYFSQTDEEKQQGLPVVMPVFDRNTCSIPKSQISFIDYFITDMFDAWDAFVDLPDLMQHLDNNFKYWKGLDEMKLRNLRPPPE

- microsomal CLint (Liver microsomes): 93 µL/min/mg
- microsomal CLint [1]: < 7.2 µL/min/mg
Compound: Nc1nc(C2CC2)nc2c1nnn2CC1CCCCO1 (centres undefined)

- microsomal CLint [1]: < 7.2 µL/min/mg
Compound: COCc1nc(N)c2nnn(CC3CCCCO3)c2n1 (centres undefined)

- microsomal CLint [1]: < 7.2 µL/min/mg
Compound: CC(C)n1cc(Cn2nnc3c(N)nc(C4CC4)nc32)cn1

- Vd [2]: 1.7 L/kg
- Vd [3]: 1.4 L/kg
- bioavailability [4]: 17%
- clearance [5]: 3.66 L/h/kg
- clearance [6]: 1.32 L/h/kg
- bioavailability [7]: 13%
Compound: Nc1nc(C(F)(F)F)nc2c1nnn2C[C@H]1CCCO1

- IC50 [8]: > 0.42 µM
Compound: FC(F)(F)c1nc(NCc2cccnc2)c2nnn(CC3CCCCO3)c2n1 (centres undefined)

- microsomal CLint [9]: 244 µL/min/mg
- microsomal CLint [1]: 52 µL/min/mg
Compound: CCc1cnc(N2CC[C@@H](Cn3nnc4c(N)nc(C5CC5)nc43)C2)nc1

- solubility [10]: soluble
Compound: Nc1nc(C2CC2)nc2c1nnn2CC1CN(Cc2ccccc2)CCO1 (centres undefined)

- microsomal CLint [9]: 625 µL/min/mg
- microsomal CLint [1]: 303 µL/min/mg
Compound: Cc1ccnc(N2CCCC(Cn3nnc4c(N)nc(C5CC5)nc43)C2)n1 (centres undefined)

- microsomal CLint [9]: < 28 µL/min/mg
- microsomal CLint [1]: 11.9 µL/min/mg
Compound: Nc1nc(C2CC2)nc2c1nnn2C[C@H]1CCCO1

- microsomal CLint [1]: 100 µL/min/mg
Compound: Nc1nc(C2CCCCC2)nc2c1nnn2CC1CCCCO1 (centres undefined)

- IC50 [8]: 3.62 µM
- inhibition [11]: 60%
- microsomal CLint [1]: 150 µL/min/mg
- inhibition [12]: 64%
Compound: Nc1nc(C2CC2)nc2c1nnn2CC1CCCN(Cc2ccccc2)C1 (centres undefined)

- microsomal CLint [9]: 80 µL/min/mg
- bioavailability [4]: 12%
- clearance [5]: 1.68 L/h/kg
- clearance [6]: 0.288 L/h/kg
- microsomal CLint [1]: 36 µL/min/mg
Compound: Cc1nc(N)c2nnn(C[C@H]3CN(Cc4cc(F)cc(F)c4)CCO3)c2n1
- Activity [13]: Non-toxic
- Activity (Salmonella typhimurium): Non-toxic

- microsomal CLint [9]: 75 µL/min/mg
- clearance [5]: 7.44 L/h/kg
- clearance [6]: 0.42 L/h/kg
- microsomal CLint [1]: 16 µL/min/mg
Compound: Nc1nc(C2CC2)nc2c1nnn2C[C@H]1CN(Cc2ncccn2)CCO1
- Activity [13]: Non-toxic
- Activity (Salmonella typhimurium): Non-toxic

- microsomal CLint [9]: 230 µL/min/mg
- IC50 [8]: 0.206 µM
- inhibition [11]: 62%
- microsomal CLint [1]: 30 µL/min/mg
- inhibition [12]: 52%
Compound: Nc1nc(C2CC2)nc2c1nnn2C[C@@H]1CCN(Cc2nccs2)C1

- microsomal CLint [9]: 36 µL/min/mg
- clearance [5]: 7.26 L/h/kg
- clearance [6]: 0.51 L/h/kg
- microsomal CLint [1]: 36 µL/min/mg
Compound: Nc1nc(C(F)(F)F)nc2c1nnn2C[C@H]1CN(Cc2ccccn2)CCO1
- Activity [13]: Non-toxic
- Activity (Salmonella typhimurium): Non-toxic

- microsomal CLint [1]: 17 µL/min/mg
Compound: Nc1nc(-c2ccccc2)nc2c1nnn2CC1CCCCO1 (centres undefined)

- microsomal CLint [9]: 50 µL/min/mg
- bioavailability [4]: 20%
- clearance [5]: 4.32 L/h/kg
- microsomal CLint [1]: 20 µL/min/mg
Compound: Nc1nc(C2CC2)nc2c1nnn2C[C@H]1CN(Cc2nccs2)CCO1
- Activity [13]: Non-toxic
- Activity (Salmonella typhimurium): Non-toxic

- IC50 [8]: > 2 µM
Compound: Nc1nc(C2CC2)nc2c1ncn2C[C@H]1CCCO1

- Vd [2]: 5.5 L/kg
- microsomal CLint [9]: < 14 µL/min/mg
- Vd [3]: 0.9 L/kg
- bioavailability [4]: < 5%
- clearance [5]: 1.74 L/h/kg
- clearance [6]: 0.66 L/h/kg
- microsomal CLint [1]: 24.6 µL/min/mg
- bioavailability [7]: < 5%
Compound: CCc1nc(Cn2nnc3c(N)nc(C4CC4)nc32)cs1

- microsomal CLint [1]: < 7.2 µL/min/mg
Compound: Nc1ncnc2c1nnn2CC1CCCCO1 (centres undefined)

- microsomal CLint [1]: < 7.2 µL/min/mg
Compound: Nc1nc(C2CC2)nc2c1nnn2Cc1cc(C2CC2)n[nH]1

- microsomal CLint [1]: < 7.2 µL/min/mg
Compound: Nc1nc(C2CC2)nc2c1nnn2Cc1ccc(Cl)cc1

- microsomal CLint [9]: < 14 µL/min/mg
- INH (Homo sapiens [15]): > 10 µM
- efflux ratio [16]: 3.5
- bioavailability [4]: 63%
- IC50 [8]: 0.0013 µM
- Selectivity ratio (Homo sapiens [17]): > 1000
- clearance [5]: 1.38 L/h/kg
- fraction unbound [18]: 0.88
- solubility [19]: 2.9 mg/mL (≈ 8.37 mM)
- clearance [6]: 0.21 L/h/kg
- INH [20]: 1.3 µM
- microsomal CLint [1]: < 8 µL/min/mg
- bioavailability [7]: 100%
- solubility [22]: 0.15 mg/mL (≈ 0.433 mM)
- fraction unbound [23]: 0.46
- fraction unbound [24]: 0.78
- pKa [25]: 4.9
- IC50 [26]: 0.0019 µM
Compound: Cc1nc(N)c2nnn(C[C@H]3CN(Cc4nccs4)CCO3)c2n1
- Activity (Canis familiaris [14]): Toxic
- Activity [13]: Non-toxic
- Activity (Pancreatic islet): Active
- IC50 [21]: > 100 µM
- Activity (Salmonella typhimurium): Non-toxic
- Activity (Canis familiaris [27]): Toxic

- microsomal CLint [9]: 22 µL/min/mg
- bioavailability [4]: 45%
- clearance [5]: 1.44 L/h/kg
- clearance [6]: 0.336 L/h/kg
- microsomal CLint [1]: 15 µL/min/mg
Compound: CCc1csc(CN2CCO[C@@H](Cn3nnc4c(N)nc(C)nc43)C2)n1
- Activity [13]: Non-toxic
- Activity (Salmonella typhimurium): Non-toxic

- microsomal CLint [9]: 35 µL/min/mg
- microsomal CLint [1]: < 7.2 µL/min/mg
Compound: Nc1nc(C2CC2)nc2c1nnn2CC1CCCOC1 (centres undefined)

From ChEMBL document CHEMBL2069214, “Discovery of triazolopyrimidine-based PDE8B inhibitors: exceptionally ligand-efficient and lipophilic ligand-efficient compounds for the treatment of diabetes” (Bioorg Med Chem Lett, 2012)
